“Also recorded” adds a separate entry of the source.
Key:
[1] = test system: haematin dimerization to β-haematin; assay: β-Haematin Inhibitory Activity; format: biochemical; settings: 10 fold molar excess of drug
[2] = test system: haematin dimerization to β-haematin; settings: cited from earlier work

Row | Structure (SMILES) | inhibition of the BHIA haematin dimerization reaction (in words) [1] | inhibition of spontaneous haematin dimerization to β-haematin in vitro [2] | inhibition of the BHIA haematin dimerization reaction (in words) ([1]; listed as PM)
1 | C=C[C@H]1C[N@@]2CC[C@H]1C[C@@H]2[C@@H](O)c1ccnc2ccccc12 [C, cinchonine] | activity; also recorded: inhibited |  | 
2 | C=C[C@H]1CN2CC[C@H]1C[C@@H]2C(O)c1ccnc2ccc(OC)cc12 (some centres unmarked) [Q, 6'-methoxy cinchonan-9-ol] | activity; also recorded: inhibited | inhibits | 
3 | C=C[C@H]1CN2CC[C@H]1C[C@H]2[C@H](O)c1ccnc2ccccc12 [CD, cinchonidine] | activity; also recorded: inhibited |  | 
4 | CCN(CC)CCCC(C)Nc1ccnc2cc(Cl)ccc12 (centres unmarked) [CQ, chloroquine] | inhibited |  | 
5 | COc1ccc(CCN(C)CCCC(C#N)(c2ccc(OC)c(OC)c2)C(C)C)cc1OC (centres unmarked) [VE, Verapamil] | Significant inhibition was not seen; also recorded: no significant interaction |  | 
6 | C=C[C@H]1C[N@@]2CC[C@H]1C[C@@H]2[C@@H](O)c1ccnc2ccc(OC)cc12 [QD, quinidine] | activity; also recorded: inhibited |  | 
7 | CC(CN1c2ccccc2Sc2ccccc21)N(C)C (centres unmarked) [PMZ, promethazine] | Significant inhibition was not seen |  | no significant interaction
8 | CC[C@H]1CN2CC[C@H]1C[C@H]2[C@H](O)c1ccnc2ccc(OC)cc12 [HQ, hydroquinine] | activity; also recorded: inhibited |  | 
9 | CC[C@H]1CN2CC[C@H]1C[C@@H]2[C@@H](O)c1ccnc2ccc(OC)cc12 [HQD, hydroquinidine] | activity; also recorded: inhibited |  | 

Reference: paper PMC201021 (Malaria Journal, 2003)
